Experimental data from patent US5202266A, “25-hydroxy vitamin D3 derivatives, process for their production, and assay method using the same” (Asahi Kasei Kogyo Kabushiki Kaisha, priority 1987, dated 1993).

How the values were obtained:
[1] = Storage stability of [125I]-labeled derivative, checked by CPBA standard curve using DBP; assay type: physicochemical; details: 50% H2O-ethanol solution, -20° C., argon atmosphere, day 0, 21 and 49; FIG. 6
Procedure: A standard ethanol solution of 25-hydroxy vitamin D3 (1,024 pg/20 μl) was diluted stepwise by two-fold dilutions to prepare 32 pg/20 μl, 16 pg/20 μl, 8 pg/20 μl, 4 pg/20 μl, 2 pg/20 μl and 1 pg/20 μl.
Samples (20 μl) of each concentration hereinabove were pipetted into two tubes. Aliquots of an ethanol solution, each 20 μl, of radioisotope iodine [125I]-labeled 25-hydroxy vitamin D3 derivative, containing as an antioxidant tocopherol, were pipetted into each tube (20 μl, ca. 30,000 cpm) DBP diluted with tris buffer, pH 8.6 (approx. 500-1,000 dilution of DBP fraction in (1) hereinabove) each 500 μl, was stirred and allowed to stand at 4° C. for 16 hours.
Glycine buffer, pH 8.6, suspending a mixture of dextran (T70) and active charcoal (1:10) (each 30 μl), was added into the reaction tubes, stirred and incubated at 4° C. for 30 mins. B-F separation was made by centrifugation at 3,000 r.p.m. for 10 mins. at 4° C., and each supernatant solution 500 μl was measured by an Autowell γ-counterfor 1 min. The ratio of binding is calculated by the following equation: [formula] wherein (B) is the count number in each tube, (NSB)-- is the count number measured by using 25-hydroxy vitamin D3 (1,024 pg/20 μl) instead of ^12 5I-labeled 25-hydroxy vitamin D3 derivative and (Bo) is the count number measured by using 25-hydroxy vitamin D3 at zero concentration.
A 50% H2 O-ethanol solution of [^125 I] […]

[2] = test system: Anti-25-hydroxy vitamin D3 rabbit serum; assay: Radio immunoassay standard curve of 25-hydroxy vitamin D3 using the labeled derivative as tracer; assay type: binding; details: RIA; for sensitivity of assay, monoiodine vs diiodine [125I] labeling: FIG. 3; for standard curve result by methylene chain length n in R1: FIG. 4, n=1, n=2, n=3 compared
Procedure: A standard ethanol solution of 25-hydroxy vitamin D3 (256 pg/20 μl) was diluted stepwise by two-fold dilution to prepare 128 pg/20 μl, 64 pg/μl, 32 pg/20 μl, 16 pg/20 μl, 8 pg/20 μl, 4 pg/20 μl and 2 pg/20 μl samples.
Samples (20 μl) of each concentration hereinabove were pipetted into three tubes. Ethanol solutions, each 20 μl, of radioisotope iodine [^125 I]-labeled 25-hydroxy vitamin D3 derivative which contains as an antioxidant tocopherol was pipetted into each tube (20 μl, ca. 13,000 cpm).
Anti-25-hydroxy vitamin D3 rabbit serum diluted with tris buffer (approx. 15,000 dilution) pH 8.6, each 1 ml, was added to each tube. Each mixture in the tubes was stirred in a BORTEX mixer and allowed to stand at 5° C. overnight (20-24 hours). Glycine buffer (pH 8.6) suspending a mixture of dextran (T70) and active charcoal (1:10), each 300 μl) was added into the reaction tubes, and each was stirred by a BORTEX mixer and incubated at 5° C. for 1 hour. B-F separation was performed by centrifugation at 3,000 r.p.m. for 10 mins., and each supernatant solution (1 ml) was measured by an Autowell γ-counter for 1 min. The ratio of binding is calculated by the following equation: [formula] wherein (B) is the count number in each tube, (BL) is the count number measured by using 25-hydroxy vitamin D3 (1,000 pg/20 μl) in place of isotope ^125 I-labeled 25-hydroxy vitamin D3 derivative, and (Bo) is the count number measured by using 25-hydroxy vitamin D3 at zero concentration.
A standard curve was prepared by using tritium [^3 H]-labeled 25-hydroxy vitamin D3 derivative (26, 27-methyl-^3 H) as in the case of the [^125 I]-labeled derivative in (1) hereinabove.
Monoiodine [^125 I] labeling and diiodine [^125 I] labeling were compared according to the same method as hereinabove. In FIG. 3, -- -- -- indicates monoiodine [^125 I] labeling, and -- -- -- indicates diiodine [^125 I] labeling.
In formula [IV], assays using compounds having methylene R1 [--CH2)n--] wherein n=1, n=2 and n=3, are compared with each other.

Row | SMILES | stability: change of standard curve after storage [1] | sensitivity of assay, monoiodine vs diiodine [125I] labeling [2] | standard curve result by methylene chain length n in R1 [2]
1 | C=C1CC[C@H](OC(=O)CCNC(=O)CCc2ccc(O)c([125I])c2)C/C1=C/C=C1\CCC[C@]2(C)[C@@H]([C@H](C)CCCC(C)(C)O)CC[C@@H]12 [Example 4, 25-hydroxy vitamin D3 --3β--O--{3-[N-3-(4-hydroxy-3-iodo [^125 I]phenyl)propionyl]amino propionate}] | no changes of the standard curve within a range of 2-32 pg/Test were observed | almost the same sensitivity | –
2 | C=C1CC[C@H](OC(=O)CCNC(=O)CCc2cc([125I])c(O)c([125I])c2)C/C1=C/C=C1\CCC[C@]2(C)[C@@H]([C@H](C)CCCC(C)(C)O)CC[C@@H]12 [Example 5] | no changes of the standard curve within a range of 2-32 pg/Test were observed | almost the same sensitivity | –
3 | C=C1CC[C@H](OC(=O)CCNC(=O)CCc2ccc(O)c([125I])c2)C/C1=C/C=C1\CCC[C@]2(C)[C@@H]([C@H](C)CCCC(C)(C)O)CC[C@@H]12 [n=2] | – | – | good results as compared with n=1
4 | C=C1CC[C@H](OC(=O)CCCNC(=O)CCc2ccc(O)c([125I])c2)C/C1=C/C=C1\CCC[C@]2(C)[C@@H]([C@H](C)CCCC(C)(C)O)CC[C@@H]12 [n=3] | – | – | good results as compared with n=1
